Test results published in BindingDB's records for doi:10.1021/acs.jmedchem.5b01148 (Queensland University of Technology, 2015).
Bridge positions count the residues as written; N and C are the ends. Peptide text beside a SMILES is read from it.

Assay: Inhibition of matriptase (unknown origin) using Ac-RQFRpNA substrate by spectrophotometry method

**Q.** For `CC[C@H](C)[C@@H]1NC(=O)[C@@H]2CCCN2C(=O)[C@@H]2CCCN2C(=O)[C@H]([C@@H](C)CC)NC(=O)[C@H](CO)NC(=O)[C@H](CCCNC(=N)N)NC(=O)[C@H]([C@@H](C)O)NC(=O)[C@@H]2CSSC[C@H](NC1=O)C(=O)N[C@@H](Cc1ccccc1)C(=O)N1CCC[C@H]1C(=O)N[C@H](C(=O)O)CC(=O)NCC(=O)N[C@@H](CCCNC(=N)N)C(=O)N2` (GRCTRSIPPICFPD-OH; disulfide 3-11; lactam N-14), which Ki is on record?
**A.** The Ki was 546 nM.

**Q.** With `CC[C@H](C)[C@@H]1NC(=O)[C@@H]2CCCN2C(=O)[C@@H]2CCCN2C(=O)[C@H](Cc2ccc(O)cc2)NC(=O)[C@H](CO)NC(=O)[C@H](CCCNC(=N)N)NC(=O)[C@H]([C@@H](C)O)NC(=O)[C@@H]2CSSC[C@H](NC1=O)C(=O)N[C@@H](Cc1ccccc1)C(=O)N1CCC[C@H]1C(=O)N[C@H](C(=O)O)CC(=O)NCC(=O)N[C@@H](CCCNC(=N)N)C(=O)N2` (GRCTRSYPPICFPD-OH; disulfide 3-11; lactam N-14) as the molecule, how does the Ki read?
**A.** Its Ki is > 50000 nM.

**Q.** Which Ki does the source give for `C[C@@H](O)[C@@H]1NC(=O)[C@@H](NC(=O)[C@H](CCCNC(=N)N)NC(=O)CN)CSSC[C@@H](C(=O)N[C@@H](Cc2cnc[nH]2)C(=O)O)NC(=O)[C@H](CCCNC(=N)N)NC(=O)[C@@H]2CCCN2C(=O)[C@@H]2CCCN2C(=O)[C@H](CC(=O)O)NC(=O)[C@H](CO)NC(=O)[C@H](CCCCN)NC1=O` (H-GRCTKSDPPRCH-OH; disulfide 3-11) here?
**A.** Its Ki is 87 nM.

**Q.** Which Ki does the source give for `CC[C@H](C)[C@@H]1NC(=O)[C@H](CO)NC(=O)[C@H](CCCCN)NC(=O)[C@H]([C@@H](C)O)NC(=O)[C@@H](NC(=O)[C@H](CCCNC(=N)N)NC(=O)CN)CSSC[C@@H](C(=O)N[C@@H](Cc2cnc[nH]2)C(=O)O)NC(=O)[C@H](CCCNC(=N)N)NC(=O)[C@@H]2CCCN2C(=O)[C@@H]2CCCN2C1=O` (H-GRCTKSIPPRCH-OH; disulfide 3-11) here?
**A.** The Ki was 82 nM.
